Source: US20140024638A1, “TREATMENT OF COGNITIVE DYSFUNCTION IN SCHIZOPHRENIA” (TARGACEPT, INC., priority 2011, published 2014)

Key:
[1] = in vivo; cited from earlier work
[2] = tested on: patients with schizophrenia; assay: Scale for Assessment of Negative Symptoms (SANS), Phase 2 trial; assay type: in vivo, human; details: for SANS TOTAL SCORE: Adjusted Mean / SANS TOTAL SCORE: Mean Difference ± SE between TC-5619 and Placebo (Placebo-TC5619): All Patients; for SANS: Mean (SE): tobacco users; for SANS: Mean (SEM): total population
Protocol: (§1) The double blind, placebo controlled Phase 2 trial was conducted at 7 sites in the United States and 12 sites in India. […] Of the randomized patients, approximately 69% were male and approximately 46% were users of tobacco products. […] The primary efficacy outcome measure was GMLT, and the trial included a number of other scales as secondary efficacy outcome measures.

[3] = in vivo; cited from earlier work; remark: listed apart in the source
[4] = tested on: patients with schizophrenia; assay: Subject Global Impression - Cognition scale (SGI-Cog), Phase 2 trial; assay type: in vivo, human; details: for SGI-COGNITION TOTAL BY PATIENT: Adjusted Mean / SGI-COGNITION TOTAL BY PATIENT: Mean Difference ± SE between TC-5619 and Placebo (Placebo-TC5619): All Patients; for SGI-Cog: Mean (SE): tobacco users; for SGI-Cog: Mean (SEM): total population
Protocol: as §1

[5] = tested on: patients with schizophrenia; assay: Clinical Global Impression - Severity (CGI-S), Phase 2 trial; assay type: in vivo, human; details: for CGI-SEVERITY: Adjusted Mean / CGI-SEVERITY: Mean Difference ± SE between TC-5619 and Placebo (Placebo-TC5619): All Patients; for CGI-S: Mean (SE): tobacco users; for CGI-S: Mean (SEM): total population
Protocol: as §1

[6] = tested on: patients with schizophrenia; assay: CogState Social-Emotional Cognition task, Phase 2 trial; assay type: in vivo, human; details: for CogState Social-Emotional Cognition: Mean (SE): tobacco users meeting data integrity criteria; for CogState Social-Emotional Cognition: Mean (SEM): total population, subjects meeting data integrity criteria
Protocol: as §1

[7] = water solubility (salt screening); assay type: physicochemical
[8] = tested on: patients with schizophrenia; assay: CogState Identification task (attention), Phase 2 trial; assay type: in vivo, human; details: for CogState Identification: Mean (SE): tobacco users meeting data integrity criteria
Protocol: as §1

O=C(N[C@@H]1C2CCN(CC2)[C@H]1Cc1cccnc1)c1cc2ccccc2o1 (single isomer, unassigned) [TC-5619]
efficacy in preclinical models of memory [1]: had efficacy
SANS TOTAL SCORE: Adjusted Mean ([2]; Week 1, 1 mg daily, SE 0.93, placebo −0.92): −1.20
SANS TOTAL SCORE: Mean Difference ± SE between TC-5619 and Placebo (Placebo-TC5619) ([2]; Week 1, 1 mg daily, one-sided 90% CI (−0.77, ∞), one-sided P 0.3647): 0.28 ± 0.82
SANS TOTAL SCORE: Adjusted Mean ([2]; Week 4, 1 mg daily, SE 1.11, placebo −2.74): −3.52
SANS TOTAL SCORE: Mean Difference ± SE between TC-5619 and Placebo (Placebo-TC5619) ([2]; Week 4, 1 mg daily, one-sided 90% CI (−0.74, ∞), one-sided P 0.2547): 0.78 ± 1.18
SANS TOTAL SCORE: Adjusted Mean ([2]; Week 8, 5 mg daily, SE 1.25, placebo −5.55): −7.25
SANS TOTAL SCORE: Mean Difference ± SE between TC-5619 and Placebo (Placebo-TC5619) ([2]; Week 8, 5 mg daily, one-sided 90% CI (−0.14, ∞), one-sided P 0.1184): 1.71 ± 1.44
SANS TOTAL SCORE: Adjusted Mean ([2]; Week 12, 25 mg daily, SE 1.40, placebo −6.23): −9.93
SANS TOTAL SCORE: Mean Difference ± SE between TC-5619 and Placebo (Placebo-TC5619) ([2]; Week 12, 25 mg daily, one-sided 90% CI (1.53, ∞), one-sided P 0.0147): 3.70 ± 1.68
SANS, result in words ([2]; secondary outcome measure, investigator assessment of negative symptoms): encouraging efficacy signals
SANS: Mean (SE) ([2]; Week 4, 1 mg daily, 1-tailed p = 0.098): 2.74 (2.10); p = 0.098
SANS: Mean (SE) ([2]; Week 8, 5 mg daily, 1-tailed p = 0.054): 4.00 (2.45); p = 0.054
SANS: Mean (SE) ([2]; Week 12, 25 mg daily, 1-tailed p = 0.033): 4.86 (2.58); p = 0.033
SANS: Mean (SEM) ([2]; Week 4, 1 mg daily, 1-tailed p = 0.255): 0.78 (1.18); p = 0.255
SANS: Mean (SEM) ([2]; Week 8, 5 mg daily, 1-tailed p = 0.118): 1.71 (1.44); p = 0.118
SANS: Mean (SEM) ([2]; Week 12, 25 mg daily, 1-tailed p = 0.015): 3.70 (1.68); p = 0.015
efficacy in preclinical models of schizophrenia [3]: effective
SGI-COGNITION TOTAL BY PATIENT: Adjusted Mean ([4]; Week 1, 1 mg daily, SE 0.19, placebo 11.37): 11.18
SGI-COGNITION TOTAL BY PATIENT: Mean Difference ± SE between TC-5619 and Placebo (Placebo-TC5619) ([4]; Week 1, 1 mg daily, one-sided 90% CI (−0.07, ∞), one-sided P 0.1757): 0.19 ± 0.20
SGI-COGNITION TOTAL BY PATIENT: Adjusted Mean ([4]; Week 4, 1 mg daily, SE 0.24, placebo 10.65): 10.60
SGI-COGNITION TOTAL BY PATIENT: Mean Difference ± SE between TC-5619 and Placebo (Placebo-TC5619) ([4]; Week 4, 1 mg daily, one-sided 90% CI (−0.31, ∞), one-sided P 0.4282): 0.05 ± 0.28
SGI-COGNITION TOTAL BY PATIENT: Adjusted Mean ([4]; Week 8, 5 mg daily, SE 0.29, placebo 9.80): 9.79
SGI-COGNITION TOTAL BY PATIENT: Mean Difference ± SE between TC-5619 and Placebo (Placebo-TC5619) ([4]; Week 8, 5 mg daily, one-sided 90% CI (−0.45, ∞), one-sided P 0.4914): 0.01 ± 0.36
SGI-COGNITION TOTAL BY PATIENT: Adjusted Mean ([4]; Week 12, 25 mg daily, SE 0.31, placebo 9.61): 8.95
SGI-COGNITION TOTAL BY PATIENT: Mean Difference ± SE between TC-5619 and Placebo (Placebo-TC5619) ([4]; Week 12, 25 mg daily, one-sided 90% CI (−0.16, ∞), one-sided P 0.0455): 0.66 ± 0.39
Subject Global Impression - Cognition scale, result in words ([4]; secondary outcome measure, patient self-assessment of cognitive change): encouraging efficacy signals
SGI-Cog: Mean (SE) ([4]; Week 4, 1 mg daily, 1-tailed p = 0.606): −0.13 (0.47); p = 0.606
SGI-Cog: Mean (SE) ([4]; Week 8, 5 mg daily, 1-tailed p = 0.314): 0.24 (0.49); p = 0.314
SGI-Cog: Mean (SE) ([4]; Week 12, 25 mg daily, 1-tailed p = 0.109): 0.65 (0.52); p = 0.109
SGI-Cog: Mean (SEM) ([4]; Week 4, 1 mg daily, 1-tailed p = 0.428): 0.05 (0.28); p = 0.428
SGI-Cog: Mean (SEM) ([4]; Week 8, 5 mg daily, 1-tailed p = 0.491): 0.01 (0.36); p = 0.491
SGI-Cog: Mean (SEM) ([4]; Week 12, 25 mg daily, 1-tailed p = 0.046): 0.66 (0.39); p = 0.046
CGI-SEVERITY: Adjusted Mean ([5]; Week 1, 1 mg daily, SE 0.03, placebo −0.05): −0.03
CGI-SEVERITY: Mean Difference ± SE between TC-5619 and Placebo (Placebo-TC5619) ([5]; Week 1, 1 mg daily, one-sided 90% CI (−0.07, ∞), one-sided P 0.7588): −0.02 ± 0.03
CGI-SEVERITY: Adjusted Mean ([5]; Week 4, 1 mg daily, SE 0.05, placebo −0.09): −0.06
CGI-SEVERITY: Mean Difference ± SE between TC-5619 and Placebo (Placebo-TC5619) ([5]; Week 4, 1 mg daily, one-sided 90% CI (−0.10, ∞), one-sided P 0.6737): −0.02 ± 0.06
CGI-SEVERITY: Adjusted Mean ([5]; Week 8, 5 mg daily, SE 0.05, placebo −0.24): −0.23
CGI-SEVERITY: Mean Difference ± SE between TC-5619 and Placebo (Placebo-TC5619) ([5]; Week 8, 5 mg daily, one-sided 90% CI (−0.09, ∞), one-sided P 0.5440): −0.01 ± 0.06
CGI-SEVERITY: Adjusted Mean ([5]; Week 12, 25 mg daily, SE 0.07, placebo −0.29): −0.31
CGI-SEVERITY: Mean Difference ± SE between TC-5619 and Placebo (Placebo-TC5619) ([5]; Week 12, 25 mg daily, one-sided 90% CI (−0.11, ∞), one-sided P 0.4495): 0.01 ± 0.09
Clinical Global Impression - Severity, result in words ([5]; secondary outcome measure): did not demonstrate a drug effect
CGI-S: Mean (SE) ([5]; Week 4, 1 mg daily, 1-tailed p = 0.434): 0.02 (0.09); p = 0.434
CGI-S: Mean (SE) ([5]; Week 8, 5 mg daily, 1-tailed p = 0.224): 0.08 (0.10); p = 0.224
CGI-S: Mean (SE) ([5]; Week 12, 25 mg daily, 1-tailed p = 0.308): 0.07 (0.14); p = 0.308
CGI-S: Mean (SEM) ([5]; Week 4, 1 mg daily, 1-tailed p = 0.674): −0.02 (0.06); p = 0.674
CGI-S: Mean (SEM) ([5]; Week 8, 5 mg daily, 1-tailed p = 0.544): −0.01 (0.06); p = 0.544
CGI-S: Mean (SEM) ([5]; Week 12, 25 mg daily, 1-tailed p = 0.450): 0.01 (0.09); p = 0.450
CogState Social-Emotional Cognition: Mean (SE) ([6]; Week 4, 1 mg daily, 1-tailed p = 0.632): −0.010 (0.028); p = 0.632
CogState Social-Emotional Cognition: Mean (SE) ([6]; Week 8, 5 mg daily, 1-tailed p = 0.625): −0.009 (0.029); p = 0.625
CogState Social-Emotional Cognition: Mean (SE) ([6]; Week 12, 25 mg daily, 1-tailed p = 0.752): −0.019 (0.027); p = 0.752
CogState Social-Emotional Cognition: Mean (SEM) ([6]; Week 4, 1 mg daily, 1-tailed p = 0.259): 0.013 (0.020); p = 0.259
CogState Social-Emotional Cognition: Mean (SEM) ([6]; Week 8, 5 mg daily, 1-tailed p = 0.217): 0.015 (0.020); p = 0.217
CogState Social-Emotional Cognition: Mean (SEM) ([6]; Week 12, 25 mg daily, 1-tailed p = 0.546): −0.002 (0.020); p = 0.546
water solubility [7]: very limited
CogState identification (attention), result in words ([8]; in vivo): statistically significant results of improvement
CogState Identification: Mean (SE) ([8]; Week 4, 1 mg daily, 1-tailed p = 0.097): −0.021 (0.016); p = 0.097
CogState Identification: Mean (SE) ([8]; Week 8, 5 mg daily, 1-tailed p = 0.261): −0.011 (0.017); p = 0.261
CogState Identification: Mean (SE) ([8]; Week 12, 25 mg daily, 1-tailed p = 0.057): −0.026 (0.016); p = 0.057
